{"source": "patent US12036237B2", "about": "“Bromide source for use in treating autism spectral disorder” (INSERM (INSTITUT NATIONAL DE LA SANTE ET DE LA RECHERCHE …, priority 2016, dated 2024)", "key": {"Oprm1−/− mice [1]": {"tested_on": "Oprm1−/− mice", "assay": "Y-maze exploration", "details": "bumetanide 0.5 mg/kg i.p. daily; for rate of same arm returns (cognitive stereotypies): Oprm1−/− mice"}, "Oprm1−/− mice [2]": {"tested_on": "Oprm1−/− mice", "assay": "Marble burying test", "details": "bumetanide 0.5 mg/kg i.p. daily"}, "[3]": {"details": "literature statement (Romermann et al, 2017); cited from earlier work"}, "Oprm1−/− mice [4]": {"tested_on": "Oprm1−/− mice", "assay": "Three-chamber social novelty preference test", "details": "bumetanide 0.5 mg/kg i.p. daily vs saline"}, "Oprm1−/− mice [5]": {"tested_on": "Oprm1−/− mice", "assay": "Motor stereotypies scoring", "details": "bumetanide 0.5 mg/kg i.p. daily"}, "Oprm1−/− mice [6]": {"tested_on": "Oprm1−/− mice", "assay": "Direct social interaction test", "details": "Oprm1−/− mice, bumetanide 0.5 mg/kg i.p. daily vs saline"}, "Oprm1−/− mice [7]": {"tested_on": "Oprm1−/− mice", "assay": "Novelty-suppressed feeding test"}}, "note": "“Also recorded” adds a separate entry of the source.", "data": [{"smiles": "CCCCNc1cc(C(=O)O)cc(S(N)(=O)=O)c1Oc1ccccc1", "note": "[bumetanide, Bumetanide]", "values": [{"measurement": "rate of same arm returns (cognitive stereotypies)", "setting": "Oprm1−/− mice [1]", "result": "reduced"}, {"measurement": "rate of same arm returns (cognitive stereotypies)", "setting": "Oprm1−/− mice [1]; listed as Bumetanide", "result": "reduced cognitive stereotypies; also recorded: similarly reduced"}, {"measurement": "rates of spontaneous alternation and alternate arm returns", "setting": "Oprm1−/− mice [1]; all animals", "result": "did not modify"}, {"measurement": "number of marbles buried", "setting": "Oprm1−/− mice [2]", "result": "did not significantly modify"}, {"measurement": "ability to cross the blood brain barrier", "setting": "[3]", "result": "inability; also recorded: low ability to cross the blood brain barrier"}, {"measurement": "difference (mouse over toy) in number of nose contacts", "setting": "Oprm1−/− mice [4]", "result": "restored the difference; also recorded: increased"}, {"measurement": "difference (preference for the mouse over the toy) in time spent in compartments", "setting": "Oprm1−/− mice [4]", "result": "restored the difference; also recorded: successfully restored"}, {"measurement": "duration of close contacts with the living mouse", "setting": "Oprm1−/− mice [4]", "result": "unable to reverse the deficit; also recorded: failed to restore"}, {"measurement": "time spent in close contacts with the living mouse", "setting": "Oprm1−/− mice [4]", "result": "unable to reverse the deficit; also recorded: absence of effect"}, {"measurement": "circling episodes", "setting": "Oprm1−/− mice [5]; Oprm1−/− mice", "result": "efficiently suppressed"}, {"measurement": "stereotypic behaviour / motor stereotypies (overall)", "setting": "Oprm1−/− mice [5]; Oprm1−/− mice", "result": "efficiently relieved stereotypic behaviour"}, {"measurement": "stereotypic shakes", "setting": "Oprm1−/− mice [5]; Oprm1−/− mice", "result": "efficiently suppressed"}, {"measurement": "stereotypic behaviour / motor stereotypies (overall)", "setting": "Oprm1−/− mice [5]; Oprm1−/− mice, listed as Bumetanide", "result": "suppressed motor stereotypies"}, {"measurement": "duration of burying episodes", "setting": "Oprm1−/− mice [5]; all mice", "result": "no significant effect"}, {"measurement": "number of and time spent in burying episodes", "setting": "Oprm1−/− mice [5]; all mice", "result": "increased"}, {"measurement": "number of rearing and grooming episodes", "setting": "Oprm1−/− mice [5]; mutant or wild-type", "result": "did not change"}, {"measurement": "number of and time spent in grooming episodes", "setting": "Oprm1−/− mice [6]", "result": "only effective in reducing the number of grooming episodes"}, {"measurement": "number of grooming episodes following a social contact", "setting": "Oprm1−/− mice [6]", "result": "only effective in reducing the number of grooming episodes"}, {"measurement": "number of nose contacts", "setting": "Oprm1−/− mice [6]", "result": "no significant effect"}, {"measurement": "number of, time spent in and duration of paw contacts", "setting": "Oprm1−/− mice [6]", "result": "no significant effect"}, {"measurement": "social interaction (overall)", "setting": "Oprm1−/− mice [6]", "result": "only partially restored social interaction"}, {"measurement": "time spent in and duration of nose contacts", "setting": "Oprm1−/− mice [6]", "result": "increased, but failed to completely rescue"}, {"measurement": "time spent in social contact", "setting": "Oprm1−/− mice [6]", "result": "increased, but failed to completely rescue"}, {"measurement": "number of and time spent in grooming episodes", "setting": "Oprm1−/− mice [6]; listed as Bumetanide", "result": "normalized"}, {"measurement": "number of grooming episodes following a social contact", "setting": "Oprm1−/− mice [6]; listed as Bumetanide", "result": "normalized"}, {"measurement": "food intake back in the home cage", "setting": "Oprm1−/− mice [7]; Oprm1 line, bumetanide 0.5 mg/kg i.p. daily", "result": "did not modify significantly"}, {"measurement": "feeding latency", "setting": "Oprm1−/− mice [7]; Oprm1−/− mice, bumetanide 0.5 mg/kg i.p. daily", "result": "did not modify significantly"}, {"measurement": "behavioural signs of anxiety (overall)", "setting": "Oprm1−/− mice [7]; Oprm1−/− mice, marble burying and novelty-suppressed feeding, bumetanide 0.5 mg/kg", "result": "did not show effects"}]}]}
